Measured values as given in patent US20260007643A1, “HIGHLY SOLUBLE FORMULATIONS OF HARMINE” (Reconnect Labs AG, priority 2022, published 2026).
Like-named read-outs stand apart in the source and are kept apart here.

What was measured:
[1] = Description: Thus, the present inventors performed an additional screening, in which different compositions of harmine were manufactured and their solubility in water was examined.
To this end, in a first experiment 1 g of harmine freebase was added to […] of dH2O to yield a final concentration of 20% (w/w). Then, the acids mentioned above were individually added to the solution in different molar rations (e.g. 1:1 or 2:1) and it was examined, whether the acids can solubilize harmine freebase by protonation or complex formation.

[2] = Polymorph and salt screening: stability and evaluation of solid state forms; format: physicochemical
Text: The form scNF1 was also created in the course of cooling crystallizations in water/acetone (70/30), (70/30), water/dioxane water/THF (70/30) and water/acetonitrile (70/30). In addition, the form scNF1 was created by gas diffusion crystallizations of water/1,4-dioxane, water/2-propanol and water/acetonitrile. In long-term slurries, scNF1 was successfully produced with acetone/water (80/20) and acetonitrile/water (90/10). Rapid precipitations of the form scNF1 with the antisolvent water are achieved with the solvents acetone and acetonitrile. Form scNF1 can also be crystallized by evaporating the solvent water.
The form scNF1 is Harmine-HCl dihydrate, as could be determined by means of TGA after static storage (RT/100% RH for 7 days). […] A more detailed characterization of the form scNF1 was not requested by the client.
In the course of the screening performed, 14 new solid-phases were detected by using XRPD.

[3] = Solubility testing of harmine salts (gravimetric, temperature-dependent); format: physicochemical; details: for solubility at 48 h: thermodynamic from solid; for Solubility compared with harmine hydrochloride: in words, data in water
Description: Four 250 mL glass jacketed beakers are set up, which are connected with silicone hoses and connected to a Julabo F25 HE thermostat in order to be able to set a constant temperature. In the beakers there is a Pt100 sensor for temperature monitoring, a stopper with a hole that is sealed with play dough and a vial holder with space for four 4 ml vials for a quadruple determination of the solubility. The beakers are located on a strong magnetic stirrer plate so that the temperature is distributed as homogeneously as possible in the liquid medium. Water is used as the medium. The Pt100 sensors and the Julabo are connected to a measuring computer, which controls the Julabo and the temperatures of the Pt100 sensors can be read.
A Sartorius LE26P microbalance with an accuracy of ±0.01 mg is used for the gravimetric determination of the solubility in mass percent.
4 ml vials are filled with 1-2 mL of the respective solvent and equipped with a stirring magnet. The solid to be measured is then added until it is supersaturated. The prepared vials are sealed and placed in the vial holder and equilibrated in the apparatus for 48 hours at the temperature to be examined. After 24 hours, an equilibrium between the solid and liquid phases should have been reached. The liquid phase is removed and transferred to a second vial via a Whatman 20 μm PTFE pre-syringe filter. The tools used, such as the pre-syringe filter, syringe and cannula, are initially cooled or heated to the temperature to be measured. The second vial is first empty, then weighed with the solution and finally evaporated again to ensure constant mass.
At least when the data in water are considered. […] The solubilities are summarized in the table 14 below and in FIGS. 59 and 60: […]

[4] = Blood plasma profiles of harmine and harmol in healthy volunteers; format: in vivo, Human; details: ~3.5 mg/kg
[5] = target: T1, monoamine oxidase A (MAO-A) (Homo sapiens, UniProt P21397); details: cited from earlier work
T1 sequence (P21397 1-527): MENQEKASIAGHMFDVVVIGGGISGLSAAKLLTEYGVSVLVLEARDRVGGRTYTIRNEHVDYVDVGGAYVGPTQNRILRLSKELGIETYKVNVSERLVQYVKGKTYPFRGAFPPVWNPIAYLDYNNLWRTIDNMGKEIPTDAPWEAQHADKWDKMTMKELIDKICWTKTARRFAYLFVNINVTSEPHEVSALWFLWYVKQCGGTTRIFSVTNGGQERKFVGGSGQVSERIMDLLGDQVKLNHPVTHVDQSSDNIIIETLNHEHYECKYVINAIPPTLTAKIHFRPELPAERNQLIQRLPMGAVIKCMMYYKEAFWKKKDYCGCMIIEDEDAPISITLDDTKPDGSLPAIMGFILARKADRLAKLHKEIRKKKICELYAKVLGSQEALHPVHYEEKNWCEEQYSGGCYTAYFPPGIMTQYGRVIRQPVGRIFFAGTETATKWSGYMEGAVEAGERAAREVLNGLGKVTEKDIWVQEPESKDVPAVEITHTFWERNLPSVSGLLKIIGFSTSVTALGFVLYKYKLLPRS

[6] = Solubility of harmine in the solvents used in the salt screening; format: physicochemical; details: for solubility: organic solvent or mixture
Description: The drug substance Harmine was investigated for a salt screening of different salts by crystallization experiments from various solvents and grinding experiments. Solubility experiments were also conducted before starting the salt screening.
In the following table 3, the different solvents used in the salt screening are summarized.

[7] = target: T2, monoamine oxidase B (MAO-B) (Homo sapiens, UniProt P27338); details: cited from earlier work
T2 sequence (P27338 1-520): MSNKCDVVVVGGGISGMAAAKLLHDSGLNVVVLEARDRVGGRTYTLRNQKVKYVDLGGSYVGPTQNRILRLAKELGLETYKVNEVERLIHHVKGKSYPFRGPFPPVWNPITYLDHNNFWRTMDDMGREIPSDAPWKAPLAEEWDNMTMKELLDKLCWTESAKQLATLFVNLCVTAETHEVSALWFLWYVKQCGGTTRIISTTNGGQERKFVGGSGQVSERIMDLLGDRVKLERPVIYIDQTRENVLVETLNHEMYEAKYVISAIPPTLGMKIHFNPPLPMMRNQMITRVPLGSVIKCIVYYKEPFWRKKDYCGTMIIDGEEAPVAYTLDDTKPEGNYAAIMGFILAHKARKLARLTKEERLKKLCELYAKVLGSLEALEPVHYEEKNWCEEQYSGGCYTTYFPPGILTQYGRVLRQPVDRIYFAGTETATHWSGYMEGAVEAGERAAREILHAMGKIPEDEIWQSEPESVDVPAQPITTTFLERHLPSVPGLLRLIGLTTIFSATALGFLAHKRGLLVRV

[8] = first pKa value; cited from earlier work
[9] = Solubility of harmine glucuronate for loading of TIP particles; format: physicochemical
Text: Loading harmine or its salt into TIP particles: FIG. 12 depicts SEM images of unsuccessful TIP loading with Harmine HCl (A; 1% in EtOH) and successful loadings with Harmine HCl (B; 0.1% in EtOH) and Harmine Glucuronate (C; 25% in H2O). As shown, TIP particles can be loaded with Harmine HCl, but only when using very low substance concentrations (0.1%) in an organic solvent such as EtOH. Loading with higher concentrations (1%) leads to external crystallization. Moreover, using H2O as solvent, triggers the rapid precipitation of HRM HCl as freebase, when it is exposed to basic residues within the TIP particles. […] Regarding the latter point, it could be shown that the loading process of the TIP particles is most efficient, when adding highly concentrated drug substance solutions (either in EtOH, H2O or DMSO) to the particles. Loading TIP particles with harmine glucuronate yielded exceptional results. […] It is thought that this property of HRM GLU is caused by its highly amorphous structure, leading to less crystallization compared to HRM HCl (which crystallizes readily as freebase, especially when exposed to basic residues within the TIP particles).
Thus, harmine glucuronate is very practical to handle on a large scale (e.g. up to 1 Kg of HRM GLU can be dissolved in 1 L of water), yields very efficient loading of the TIP particles.

[10] = Dose-response study of DMT and harmine in healthy subjects: harmine PK profiles; details: 180 mg harmine with 90 mg DMT formulated in TIP, ODTs sublingual in 3 dosing intervals every 20 minutes, two subjects
[11] = pKa and solubility data of harmine and the acids used in the salt screening; format: physicochemical
[12] = ethanol, organic solvent or mixture, EtOH, 25° C., read-out: Solubility at 25° C. (EtOH)
[13] = ethanol, organic solvent or mixture, EtOH, 37° C., read-out: Solubility at 37° C. (EtOH)
[14] = water, H2O, 25° C., read-out: Solubility at 25° C. (H2O)
[15] = water, H2O, 37° C., read-out: Solubility at 37° C. (H20)

## O=C(O)[C@@H](O)[C@H](O)[C@H](O)[C@@H](O)C(=O)O [mucic acid]
[1]
  Ability of the acid to solubilize harmine freebase: not able to solubilize harmine

## COc1ccc2c(c1)[nH]c1c(C)nccc12.O=P(O)(O)O [Harmine Phosphate]
[2]; any deuterated solvent
  Evaluation/Remarks: solubility in deuterated solvents: Since the new form does not show sufficient solubility
[3]; [12]
  solubility at 48 h: 0.58 mg/mL
[3]; [13]
  solubility at 48 h: 0.55 mg/mL
[3]; listed as Harmine-Phosphate, Phosphate
  Solubility compared with harmine hydrochloride: do not show any better solubility properties
[3]; listed as harmine phosphate, Phosphate
  Solubility compared with harmine hydrochloride: significantly worse
[3]; [14]
  solubility at 48 h: 11 mg/mL
[3]; [15]
  solubility at 48 h: 12.9 mg/mL

## COc1ccc2c(c1)[nH]c1c(C)nccc12.Cl [Harmine HCl, reference compound]
[2]; RT/100% RH for 7 days
  Solid form change on static storage: converts to the form scNF1
[3]; [12]
  solubility at 48 h: 6.79 mg/mL
[3]; [13]
  solubility at 48 h: 7.95 mg/mL
[3]; [14]
  solubility at 48 h: 24.9 mg/mL
[3]; [15]
  solubility at 48 h: 53.1 mg/mL
[4]; human, plasma, oral administration
  Cmax: ~80 ng/mL
[4]; oral capsule, 10 healthy volunteers
  Harmine plasma level: ~80 ng/mL

## O=C(O)[C@H](O)[C@@H](O)[C@H](O)[C@H](O)CO [D-gluconic acid]
[1]
  Solubility of harmine with the acid: higher than 15%

## COc1ccc2c(c1)[nH]c1c(C)nccc12 [Harmine, 7-methoxy-1-methyl-9H-pyrido[3,4-b]-indole]
[5]
  Inhibition of MAO-A: reversibly inhibits
[6]; 2-picoline
  solubility: 10 mg/mL
[6]; 95% methanol | 5% water
  Solubility in solvent: almost resolved
[6]; dimethyl carbonate, THF, acetonitrile, methanol, acetone, MEK, dichloromethane (25° C. | 45° C.), chloroform, 1,4-dioxane, water, veratrol, p-xylene, sulfolane, benzonitrile, 95% acetonitrile | 5% water (45° C.), 95% acetone | 5% water (45° C.)
  Anti-Solvent practically insoluble: practically insoluble
[6]; dimethyl sulfoxide (DMSO)
  solubility: 13 mg/mL
[6]; dimethylformamide (DMF), dimethylformamid (DMF), souble
  solubility: 33 mg/mL
[6]; methanol, 45 °C
  solubility: 12 mg/mL
[6]; 1-methyl-2-pyrrolidone (NMP), souble
  solubility: 80 mg/mL
[6]; dimethylacetamide, souble
  solubility: 40 mg/mL
[6]; tetramethylurea, souble
  solubility: 40 mg/mL
[6]; pyridine
  solubility: 205 mg/mL
[7]
  Inhibition of MAO-B: does not inhibit
[8]
  pka (½): 7.45

## D-glucuronic acid
[1]; 1 g harmine freebase in 5 g dH2O (20% w/w), acid added in molar ratios e.g. 1:1 or 2:1
  Ability of the acid to solubilize harmine freebase: highest solubility

## COc1ccc2c(c1)[nH]c1c(C)nccc12.Cl.O.O [Harmine-HCl dihydrate]
[2]; after 5 weeks at ambient conditions, powder diffractogram
  Solid form stability at ambient conditions: traces of Harmine-HCl were identified

## Harmine Glucuronate
[3]; 25° C.
  Gravimetric solubility relative to harmin hydrochloride: about eight times
[3]; EtOH, 25° C.
  Solubility at 25° C. (EtOH): 4.25 mg/mL
[3]; EtOH, 37° C.
  Solubility at 37° C. (EtOH): 7.93 mg/mL
[3]; H2O, 25° C.
  Solubility at 25° C. (H2O): 405.95 mg/mL
[3]; H2O, 37° C.
  Solubility at 37° C. (H20): 549.52 mg/mL
[3]
  Solubility compared with harmine hydrochloride: extremely improved solubility
[9]; H2O, RT
  Solubility in H2O: ~45%
[9]; in 1 L of water
  Amount that can be dissolved in 1 L of water: up to 1 Kg
[10]
  Bioavailability of harmine (plasma PK profiles): bioavailable
[1]; harmine + equimolar glucuronic acid in deionized water, 1 g harmine in 5 mL final volume
  Harmine concentration readily feasible in water: > 20%
[11]
  ΔpKs value of harmine and glucuronic acid: 4.27

## L(−)-Malic acid
[11]; harmine pKa 7.45 versus first pKa of the acid
  ΔpKa: 3.99
[11]; harmine pKa 7.45 versus second pKa of the acid
  ΔpKa: 2.35
